# Test results reported in patent publication US20120101169A1, “METHODS OF PROVIDING ANTICOAGULATION EFFECTS IN SUBJECTS” (Penwest Pharmaceuticals Co., priority 2010, published 2012).
# Where “and” joins values, the source holds several entries; their conditions need not be identical. Identical values can stand only once. Like-named read-outs stand apart in the source and are kept apart here. Marks after values point to notes of the source that are not given here.
# Columns and labels:
# [1] = Multiple ascending dose pharmacokinetics of ATQ (Example 5 Part 2); assay type: in vivo, human; settings: for Cmax / AUC: both sexes, human, plasma, oral; for AUC: read-out: AUC(0-tau, 24)
# Description: The study was conducted in 2 parts. Part 1 was conducted in healthy male subjects only while Part 2 was conducted in healthy male and female subjects. The intent of this study part was to optimize the dosage regimen and diet for the multiple-dose safety and tolerance Part 2 of the study. All plasma ATQ concentrations were determined using a GLP validated bioanalytical method. ATQ was administered as an oral solution in oil (0.49 g/mL). The placebo solution consisted of olive oil alone.
# Part 2 was conducted as a multiple-dose dose-escalation design. […] Dose administration was subsequently switched to a BID regimen administered for 14 days.
# Part 2 was conducted as a multiple-dose dose-escalation design in male and female subjects. None of the subjects who participated in Part 1 of the study were eligible to participate in Part 2. A total of 32 subjects were enrolled in Part 2. Twenty (20) subjects received ATQ or placebo for one week in a single-blind, randomized, placebo-controlled design: Cohort 1 […] low dose (1 g/day as 0.33 g TID) and Cohort 2 […] midrange dose (2 g/day as 0.67 g TID). In each cohort, 8 subjects received ATQ and 2 subjects received placebo under fed conditions. An additional 12 subjects were subsequently enrolled into 2 additional cohorts of 6 subjects each. The 12 subjects were randomized to receive one of the two following ATQ doses: Cohort 3 (N=6) low dose (0.5 g BID) and Cohort 4 (N=6) intermediate dose (0.75 g BID) administered for 14 days with a standard meal. All subjects participating in Cohorts 3 and 4 received ATQ; there was no placebo arm.
# For Part 2, serial blood samples for the measurement of the plasma levels of ATQ were collected in Cohorts 1 and 2 as part of a 3 times daily regimen prior to and over the first 6-hour dosing interval following administration of the first dose on Day 1, prior to the morning dose on Days 3, 5, and 6, over the 6-hour and 12-hour dosing intervals following the afternoon and evening dose, respectively, and up to 48 hours after the final (morning) dose on Day 7.
# In Cohorts 3 and 4, serial blood samples for the measurement of the plasma levels of ATQ were collected for the twice-daily regimen prior to and over the 12-hour dosing interval following the first dose administration on Day 1, prior to the morning dose on Days 4, 7, 10, 13, and 14, and over the 12-hour dosing interval after the final (morning) dose on Day 14. Multiple-dose PK data over the dose range of 1.0-g/day (BID and TID), 1.5-g/day (BID), and 2.0-g/day (TID) were generated in this study.
# Part 2 multiple-dose results are provided for Day 7 (Cohorts 1 and 2) or Day 14 unless otherwise indicated. Parameters designated with the term 24 refer to pharmacokinetic parameters derived for a 24-hour TID or BID dosing period.
# [2] = Safety and tolerability of (R,R,R) α-tocopherol quinone in healthy male and female subjects (Example 1); settings: high and moderate fat meal
# Description: The safety and tolerability of (R,R,R) α-tocopherol quinone was tested in healthy male and female subjects. Twelve subjects were divided into two groups of six subjects each (Groups A and B). Group A was administered 1.5 g of a (R,R,R) α-tocopherol quinone twice a day for one day. Group B was administered 1.0 g of (R,R,R) α-tocopherol quinone three times a day for 1 day. Both groups of subjects were fed under high and moderate fat meal content.
# [3] = tested on: coagulation (PT, INR, aPTT); assay: Basic coagulation panel (PT, INR, aPTT) and coagulation safety (Example 5)
# Source text: The INR is the ratio of a subject's prothombin time (PTtest) to the prothombin time of a normal (control) sample (PTnormal), raised to the power of the International Sensitivity Index (ISI) value for the analytical system:
# “Prothrombin time” or “PT” refers to the time it takes the blood plasma of a subject to clot after the addition of a thromboplastin reagent. “Thromboplastin reagent” refers to a standardized commercial product which is used in blood coagulation assays to measure blood clotting time.
# As used herein, the terms “activated partial thromboplastin time” or “aPTT” or “partial thromboplastin time” or “PTT,” refer to the time it takes the blood plasma of a subject to clot after the addition of a phospholipid (i.e., partial thromboplastin) and calcium chloride. Non-limiting examples of phospholipids for use in determining aPTT include silica and kaolin.
# INR grades are used to rank the severity thresholds for the coagulation factors relative to the upper normal of limit values (ULN). The higher the INR grade the higher the severity. […] As used herein, “Grade 1” refers to an INR value of 1.1 to 1.65 in a subject. As used herein, “Grade 2” refers to an INR value of 1.65 to 2.2 in a subject. As used herein, “Grade 3” refers to an INR value greater than 2.2 in a subject.
# Thus both the basic coagulation panel assessments including PT, INR, aPTT, and platelet counts were performed at screening, on Day −1, and extensively throughout the treatment period to assess the potential effect of ATQ on coagulation.
# This section covers the PD effect of ATQ on the coagulation parameters PT, INR, and aPPT and the relative time course of drug induced changes in these parameters.
# factor V = assay: Extended coagulation biomarker panel: factor V; set-up: species or system human; settings: in vivo
# Source text: (§1) In Part 1 the extended panel was collected at screening and at check-in (Day −1) and Day 2 of each period unless the study results warranted a different sampling schedule. In Part 2, the same of the exploratory coagulation biomarkers were collected at screening, check-in, Day 4, and Day 8 in Cohorts 1 and 2, or at check-in, Day 7, and Day 14 in Cohorts 3 and 4 with the following exception: in Cohorts 3 and 4, platelet function was collected at check-in only or when medically indicated.
# factor II (prothrombin) = assay: Extended coagulation biomarker panel: factor II; assay type: in vivo, human; settings: Part 2, 0.67 g TID, Day 4
# Source text: as §1
# [4] = 1-g/day (0.33 g TID), mean, N = 8
# [5] = 1-g/day (0.5 g BID), morning dose data, N = 5
# [6] = 1.5-g/day (0.75 g BID), morning dose data, N = 6
# [7] = 2-g/day (0.67 g TID), mean, N = 7
smiles,measurement,setting,value
"CC1=C(C)C(=O)C(CC[C@](C)(O)CCC[C@H](C)CCC[C@H](C)CCCC(C)C)=C(C)C1=O [ATQ, alpha-tocopherolquinone]",Time for trough concentrations to reach steady state,[1]; 0.33 g TID,≤ 3 days
same,Time for trough concentrations to reach steady state,[1]; 0.5 g BID,≤ 4 days
same,Time for trough concentrations to reach steady state,[1]; 0.67 g TID,≤ 3 days
same,Time for trough concentrations to reach steady state,[1]; 0.75 g BID,13 days
same,Cmin,"[1]; 1-g/day (0.33 g TID), Day 7, mean, N = 8",583 ng/mL
same,"CLpo, 24","[1]; 1-g/day (0.33 g TID), daily dose divided by mean AUC(0-tau, 24)",24.2 [c] L/h
same,"Cavg, 24 h",[1]; [4],1730 ng/mL
same,Fluct24 h,[1]; [4],189%
same,TimeHgh(0-24) (time above the pharmacologically relevant concentration of 0.5 μg/mL),"[1]; 1-g/day (0.33 g TID), median, N = 8",23.80 h
same,TimeHgh(0-24) (time above the pharmacologically relevant concentration of 0.5 μg/mL),"[1]; 1-g/day (0.5 g BID), 2 times the 0-12 hour morning dose value, N = 5",19.68 [e] h
same,Cmin,"[1]; 1-g/day (0.5 g BID), Day 14, mean, N = 5",308 ng/mL
same,"CLpo, 24","[1]; 1-g/day (0.5 g BID), morning dose data, Day 14, N = 5",57.5 L/h
same,"Cavg, 24 h",[1]; [5],1040 ng/mL
same,Fluct24 h,[1]; [5],145%
same,Estimated daily AUC higher with TID than BID,[1]; 1-g/day: 0.33 g TID versus 0.5 g BID,approximately 66%
same,TimeHgh(0-24) (time above the pharmacologically relevant concentration of 0.5 μg/mL),"[1]; 1.5-g/day (0.75 g BID), 2 times the 0-12 hour morning dose value, N = 6",21.84 [e] h
same,Cmin,"[1]; 1.5-g/day (0.75 g BID), Day 14, mean, N = 6",443 ng/mL
same,"CLpo, 24","[1]; 1.5-g/day (0.75 g BID), morning dose data, Day 14, N = 6",53.5 L/h
same,"Cavg, 24 h",[1]; [6],1380 ng/mL
same,Fluct24 h,[1]; [6],147%
same,Cmin,"[1]; 2-g/day (0.67 g TID), Day 7, mean, N = 7",1220 ng/mL
same,"CLpo, 24","[1]; 2-g/day (0.67 g TID), daily dose divided by mean AUC(0-tau, 24)",18.5 [c] L/h
same,"Cavg, 24 h",[1]; [7],4480 ng/mL
same,Fluct24 h,[1]; [7],177%
same,TimeHgh(0-24) (time above the pharmacologically relevant concentration of 0.5 μg/mL),"[1]; 2-g/day (0.67 g TID), median, N = 7",23.87 h
same,Accumulation of Cmax,[1]; BID administration,did not accumulate
same,Cmax,"[1]; 0.33 g, 1-g/day (0.33 g TID), Day 7, N = 8, read-out: Cmax last dose",2400 ng/mL
same,Cmax,"[1]; 0.33 g, 1-g/day (0.33 g TID), highest Cmax of the 3 serial TID profiles, Day 6 lunch, N = 8, read-out: Cmax",3530 ng/mL
same,Cmax,"[1]; 0.5 g, 1-g/day (0.5 g BID), Day 14, N = 5, read-out: Cmax last dose",1890 ng/mL
same,Cmax,"[1]; 0.5 g, 1-g/day (0.5 g BID), Day 14 morning dose, N = 5, read-out: Cmax",1890 ng/mL
same,Cmax,"[1]; 0.67 g, 2-g/day (0.67 g TID), Day 7, N = 7, read-out: Cmax last dose",4280 ng/mL
same,Cmax,"[1]; 0.67 g, 2-g/day (0.67 g TID), highest Cmax of the 3 serial TID profiles, Day 6 dinner, N = 7, read-out: Cmax",9000 ng/mL
same,AUC,"[1]; 0.75 g, 1.5-g/day (0.75 g BID), 2 times the 0-12 hour morning dose value, N = 6",33200 ng·h/mL
same,Cmax,"[1]; 0.75 g, 1.5-g/day (0.75 g BID), Day 14, N = 6, read-out: Cmax last dose",2540 ng/mL
same,Cmax,"[1]; 0.75 g, 1.5-g/day (0.75 g BID), Day 14 morning dose, N = 6, read-out: Cmax",2540 ng/mL
same,AUC,"[1]; 1 g/day, 1-g/day (0.33 g TID), mean, N = 8",41400 ng·h/mL
same,AUC,"[1]; 1 g/day, 1-g/day (0.5 g BID), 2 times the 0-12 hour morning dose value, N = 5",25000 ng·h/mL
same,AUC,"[1]; 2 g/day, 2-g/day (0.67 g TID), mean, N = 7",108000 ng·h/mL
same,Maximum concentrations higher with TID than BID,"[1]; following the final morning dose, similar doses",approximately 27%
same,Dose proportionality of exposure following multiple-dose administration,[1]; within TID (2-fold) or BID (1.5-fold) dose range,approximately proportional increases
same,Safety and tolerability (side effects),[2]; Group A: 1.5 g twice a day for one day,no side effects were observed
same,Safety and tolerability (side effects),[2]; Group B: 1.0 g three times a day for 1 day,no side effects were observed
same,INR values reached by individual subjects,"[3]; 0.67 g TID group, 3 of 8 subjects",2.3 and 3.0 (2×)
same,Subjects with that grade of INR increase,"[3]; 0.75 g BID, Grade 2",2 of 6
same,Subjects with that grade of INR increase,"[3]; 2-g/day (0.67 g TID), Grade 3, active-treated",3 of 8
same,"Effect on coagulation (INR, PT, aPTT)","[3]; 3-g over 1 day, 0.33 g TID and 0.67 g TID or 0.75 g BID",clear effect on coagulation
same,Effect on coagulation during prolonged dosing,[3]; 14 days at 0.5 g and 0.75 g BID,appeared to slowly abate while still on drug beyond 8 days
same,Subjects with clinical coagulation laboratory values greater than 1.5 times the upper limit of normal (value greater than 1.65),[3]; Part 1,5 subjects
same,Subjects with clinically relevant changes in clinical laboratory values related to treatment-emergent adverse events,[3]; Part 1,Twelve
same,Active-treated subjects with clinically relevant changes in clinical laboratory values related to treatment-emergent adverse events,"[3]; b179, part not stated",Twenty-five
same,Subjects with study-drug related clinical coagulation laboratory values greater than 1.5 times the upper limit of normal (value greater than 1.65),"[3]; b179, part not stated",11 subjects
same,Onset of the effect on coagulation,"[3]; following the first (high dose) of ATQ, Part 1",18 h
same,Time course of the effect on coagulation,"[3]; initial increase through Day 4, second peak by Day 7 to 8",biphasic
same,Onset of the effect on coagulation,[3]; multiple dose administration,≤ 48 h
same,Time at which most subjects approach baseline coagulation values,[3]; post last dose,48 h
same,Subjects with that grade of INR increase,"[3]; single daily doses of 3-g ATQ, Grade 2",4 of 12
same,Effect on the activity of factor V,factor V,did not appear to affect
same,Decrease from baseline activity of factor II,factor II (prothrombin),51%
